Laboratory results from PubChem BioAssay (NCI).
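Values below derive from 48-hour exposures of cells grown in 96-well plates, with endpoints linearly interpolated between the two concentrations bracketing the appropriate inhibition level. At the GI50, growth is halved. At the TGI there is no net growth.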

Columns and labels:
Experiment in all cases: growth of human tumour cells (NCI), 48 h
CCRF-CEM leukemia = test system: CCRF-CEM leukemia
COLO 205 colon = test system: COLO 205 colon
OVCAR-4 ovarian = test system: OVCAR-4 ovarian
OVCAR-3 ovarian = test system: OVCAR-3 ovarian
IGROV1 ovarian = test system: IGROV1 ovarian
RPMI-8226 leukemia = test system: RPMI-8226 leukemia
SK-MEL-2 melanoma = test system: SK-MEL-2 melanoma
A549 NSCLC = test system: A549 NSCLC
CAKI-1 renal = test system: CAKI-1 renal
HCT-15 colon = test system: HCT-15 colon

Row | SMILES | GI50 (CCRF-CEM leukemia) [µM] | TGI (CCRF-CEM leukemia) [µM] | GI50 (COLO 205 colon) [µM] | TGI (COLO 205 colon) [µM] | GI50 (OVCAR-4 ovarian) [µM] | TGI (OVCAR-4 ovarian) [µM] | GI50 (OVCAR-3 ovarian) [µM] | TGI (OVCAR-3 ovarian) [µM] | TGI (IGROV1 ovarian) [µM] | GI50 (RPMI-8226 leukemia) [µM] | TGI (RPMI-8226 leukemia) [µM] | GI50 (SK-MEL-2 melanoma) [µM] | TGI (SK-MEL-2 melanoma) [µM] | GI50 (A549 NSCLC) [µM] | TGI (A549 NSCLC) [µM] | GI50 (CAKI-1 renal) [µM] | TGI (CAKI-1 renal) [µM] | GI50 (HCT-15 colon) [µM] | TGI (HCT-15 colon) [µM] | GI50 (IGROV1 ovarian) [µM]
1 | OCc1ccc(-c2ccc(-c3ccc(CO)o3)o2)o1 | > 100 | > 100 | 18.6 | 48.2 | > 41.3 | > 100 | > 84.6 | > 100 | > 31.2 | > 100 | > 100 | 38.8 | 97.1 | > 100 | > 100 | > 100 | > 100 | > 100 | > 100 | 
2 | Nc1c(C(=O)Nc2ccccc2)sc2nc3c(cc12)C(=O)CCC3 | 0.374 | > 100 | 0.364 | 2.99 | 0.81 | > 100 | 0.264 | 1.22 | > 100 | 0.303 | > 100 | 0.35 |  | 0.436 | > 100 | 0.485 | > 100 | 0.407 | > 100 | 1.01
3 | C[n+]1cn(CC(=O)c2ccccc2)c(C(N)=O)c1N |  | > 100 |  | > 100 |  | > 100 |  | > 100 | > 100 |  | > 100 |  | > 100 |  | > 100 |  | > 100 |  | > 100 | 
4 | CCOC(=O)C1C(c2ccc(Br)cc2)N(Cc2ccccc2)C(c2ccc(Br)cc2)C(C(=O)OC)S1(=O)=O (stereo not drawn) |  | > 100 |  | > 100 |  | > 100 |  | > 100 | > 100 |  | > 100 |  | > 100 |  | > 100 |  | > 100 |  | > 100 | 
5 | O=C(Nc1ccc(-n2cc(-c3ccncc3)c(-c3ccc(Cl)c(O)c3)n2)cc1)c1cc(C(F)(F)F)cc(C(F)(F)F)c1 | 4.87 | > 100 | 3.17 | 14 | 11.2 | 54.6 | 3.44 | 12.2 | 34.5 | 3.86 | > 100 | 6.61 | 31.7 | 5.43 | 22 | 7.48 | 42.9 | 3.65 | > 100 | 11.5
